Test [1] concerns the target HCV NS3 protease genotype 3a (3A-1) (Hepatitis C virus genotype 3a, UniProt Q81258). Briefly: HCV NS3 protease time-resolved fluorescence (TRF) assay, genotype 3a. The test is classed as biochemical. Conditions: Ki 3a. As to the method: (§1) The HCV NS3 protease inhibitory activity of the present compounds may be tested using assays known in the art. One such assay is HCV NS3 protease time-resolved fluorescence (TRF) assay as described below and in International Patent Application Publication No. WO2006/102087. Other examples of such assays are described in e.g., International Patent Application Publication No. WO2005/046712. The assay is performed in a final volume of 100 μl in assay buffer containing 50 mM HEPES, pH 7.5, 150 mM NaCl, 15% glycerol, 0.15% Triton X-100, 10 mM DTT, and 0.1% PEG 8000. NS3 protease is pre-incubated with various concentrations of inhibitors in DMSO for 30 minutes. The reaction is initiated by adding the TRF peptide substrate (final concentration 100 nM). NS3 mediated hydrolysis of the substrate is quenched after 1 hour at room temperature with 100 μl of 500 mM MES, pH 5.5. Product fluorescence is detected using either a VICTOR V2 or FUSION fluorophotometer (Perkin Elmer Life and Analytical Sciences) with excitation at 340 nm and emission at 615 nm with a 400 μs delay. Testing concentrations of different enzyme forms are selected to result in a signal to background ratio (S/B) of 10-30. IC50 values are derived using a standard four-parameter fit to the data. K; values are derived from IC50 values using the following formula, IC50=Ki(1+[S]/Km), Eqn (1), where [S] is the concentration of substrate peptide in the reaction and KM is the Michaelis constant. See Gallinari et al., 1999, Biochem. 38:5620-32; Gallinari et al., 1998, J. Virol. 72:6758-69; Taliani et al., 1996, Anal. Biochem. 240:60-67.
(§2) The HCV NS3 protease inhibitory activity was measured using the protease time-resolved fluorescence (TRF) assay as described below and in International Patent Application Publication No. WO 2006/102087. The assay was performed with HCV genotype 1b (BK) NS3 modified enzyme with a R155K mutation and genotype 3a (3A-1).
(§3) The assay was performed in a final volume of 50 μl in assay buffer containing 50 mM HEPES, pH 7.5, 150 mM NaCl, 15% glycerol, 0.15% TRITON X-100, 10 mM DTT, and 0.1% PEG 8000. NS3 and NS4A protease is pre-incubated with various concentrations of inhibitors in DMSO for 10 minutes. The reaction was initiated by adding the TRF peptide substrate (final concentration 25 nM) and NS3 mediated hydrolysis of the substrate proceeds for 6 hours at room temperature. Product fluorescence is detected using an Envision plate reader (Perkin Elmer) with excitation at 340 nm and emission at 615 nm with a 400 μs delay. Testing concentrations of the enzymes were selected to result in a signal to background ratio (S/B) of 5-20. IC50 values are derived using a standard four-parameter fit to the data.
(§4) NS3 and NS4A protease is pre-incubated with various concentrations of inhibitors in DMSO for 30 minutes. The reaction is initiated by adding the TRF peptide substrate (final concentration 100 nM). NS3 mediated hydrolysis of the substrate is quenched after 1 hour at room temperature with 100 μl of 500 mM MES, pH 5.5. Product fluorescence is detected using either a VICTOR V2 or FUSION fluorophotometer (Perkin Elmer Life and Analytical Sciences) with excitation at 340 nm and emission at 615 nm with a 400 μs delay. Testing concentrations of the enzymes are selected to result in a signal to background ratio (S/B) of 8-30. IC50 values are derived using a standard four-parameter fit to the data. Ki values are derived from IC50 values using the following formula, IC50=Ki(1+[S][…]), Eqn (1), where [S] is the concentration of substrate peptide in the reaction and KM is the Michaelis constant. See Gallinari et al., 1999, Biochem. 38:5620-32; Gallinari et al., 1998, J. Virol. 72:6758-69; and Taliani et al., 1996, Anal. Biochem. 240:60-67. ND means not determined.

For test [2], the target named is T1, HCV genotype 1b (BK) NS3 modified enzyme with a R155K mutation (Hepatitis C virus genotype 1b, UniProt P26663, R1181K).
T1 construct: HCV genotype 1b (BK) NS3 modified enzyme
Briefly: HCV NS3 protease time-resolved fluorescence (TRF) assay, genotype 1b R155K. The test is classed as biochemical. Conditions: Ki 1b R155K. Here is the method:
as §1, §2, §3, §4

[3] abbreviates: genotype 1b (BK) NS3 R155K, single value.

Structures can show the parent of a compound that is named as a salt.

A word on the Ki: it is a measure of affinity in units of concentration, obtained from inhibition or displacement. Low values mean higher affinity, high ones lower affinity.

As to `C=C[C@@H]1C[C@]1(NC(=O)[C@@H]1C[C@@H]2CN1C(=O)[C@H](C(C)(C)C)NC(=O)O[C@@H]1C[C@H]1CCCCCc1c(nc3ccccc3c1OCCCN1CC3(COC3)C1)O2)C(=O)NS(=O)(=O)C1(C)CC1` [Example 194], the Ki is 0.38 nM in test [1] and 0.032 nM in test [2] (setting [3]).

Take `C=C[C@@H]1C[C@]1(NC(=O)[C@@H]1C[C@@H]2CN1C(=O)[C@H](C(C)(C)C)NC(=O)O[C@@H]1C[C@H]1CCCCCc1c(nc3ccccc3c1OCC1CN(C)CCN1C)O2)C(=O)NS(=O)(=O)C1(C)CC1` (stereo partly drawn) [Example 140, (1ar,5S,8S,10R,22aR)-5-tert-butyl-17-[(1,4-dimethylpiperazin-2-yl)methoxy]-N-[(1R,2S)-2-ethenyl-1-{[(1-methylcyclopropyl)sulfonyl]carbamoyl}cyclopropyl]-3,6-dioxo-1,1a,3,4,5,6,9,10,18,19,20,21,22,22a-tetradecahydro-8H-7,10-methanocyclopropa[18,19][1,10,3,6] dioxadiazacyclononadecino [11,12-b]quinoline-8-carboxamide]: the Ki in test [1] was 3 nM; in test [2] (setting [3]), 0.26 nM.

`C=C[C@@H]1C[C@]1(NC(=O)[C@@H]1C[C@@H]2CN1C(=O)[C@H](C1CCCC1)NC(=O)O[C@@H]1CCC[C@H]1CC/C=C/Cc1c(nc3ccccc3c1OCCc1ccccn1)O2)C(=O)NS(=O)(=O)C1CC1` [Example 43, (3aR,7S,10S,12R,21E,24aS)-7-cyclopentyl-N-{(1R,2S)-1-[(cyclopropylsulfonyl)carbamoyl]-2-ethenylcyclopropyl}-5,8-dioxo-19-[2-(pyridin-2-yl)ethoxy]-1,2,3,3a, 5,6,7,8,11,12,20,23,24,24a-tetradecahydro-10H-9,12-methanocyclopenta [18,19][1,10,3,6]dioxadiazacyclonona decino[11,12-b]quinoline-10-carboxamide]: the Ki was 9.9 nM in test [1] and 0.28 nM in test [2] (setting [3]).

For the compound `C=CC1C[C@]1(NC(=O)[C@@H]1C[C@@H]2CN1C(=O)[C@H](C1CCCC1)NC(=O)O[C@@H]1CCC[C@H]1CC/C=C/Cc1c(nc3ccccc3c1OCCCN1CCN(C)CC1)O2)C(=O)NS(=O)(=O)C1CC1` (stereo partly drawn) [Example 88, (3aR,7S,10S,12R,21E,24aS)-7-cyclo pentyl-N-{(1R,2S)-1-[(cyclo-propylsulfonyl)carbamoyl]-2-ethenylcyclopropyl}-19-[3-(4-methylpiperazin-1-yl)propoxy]-5,8-dioxo-1,2,3,3a,5,6,7,8,11,12,20,23,24,24a-tetradecahydro-10H-9,12-methano-cyclopenta[18,19][1,10,3,6]dioxa diazacyclononadecino[11,2-b]quinoline-10-carboxamide], the values for the Ki in test [1] and in test [2] (setting [3]) were 4.4 nM and 0.34 nM, respectively.

Regarding `C=C[C@@H]1C[C@]1(NC(=O)[C@@H]1C[C@@H]2CN1C(=O)[C@H](C(C)(C)C)NC(=O)O[C@@H]1C[C@H]1CCCCCc1c(nc3ccccc3c1OC1C3COCC1CN(CC1CC1)C3)O2)C(=O)NS(=O)(=O)C1(C)CC1` (stereo partly drawn) [Example 256, 9-{[(1aR,5S,8S,10R,22aR)-5-tert-butyl-8-{[(1R,2S)-2-ethenyl-1-{[(1-methylcyclopropyl)sulfonyl]carbamoyl}cyclopropyl]carbamoyl}-3,6-dioxo-1,1a,3,4,5,6,9,10,18,19,20,21,22,22a-tetradecahydro-8H-7,10-methanocyclopropa[18,19][1,10,3,6]dioxadiazacyclononadecino[11,12-b]quinolin-17-yl]oxy}-7-(cyclopropylmethyl)-3-oxa-7-azoniabicyclo[3.3.1]nonane formate], the Ki in test [1] amounted to 5.45 nM; in test [2] (first of two values printed in the cell (not explained)), 0.021 nM; in test [2] (second of two values printed in the cell (not explained)), 0.122 nM.

For `C=CC1C[C@]1(NC(=O)[C@@H]1C[C@@H]2CN1C(=O)[C@H](C1CCCC1)NC(=O)O[C@@H]1CCC[C@H]1CC/C=C/Cc1c(nc3ccccc3c1OCCN1CCCC1)O2)C(=O)NS(=O)(=O)C1CC1` (stereo partly drawn) [Example 80, (3aR,7S,10S,12R,21E,24aS)-7-cyclo pentyl-N-{(1R,2S)-1-[(cyclopropylsulfonyl)carbamoyl]-2-ethenylcyclopropyl}-5,8-dioxo-19-[2-(pyrrolidin-1-yl)ethoxy]-1,2,3,3a,5,6,7,7,8,11,12,20,23,24,24a-tetradecahydro-10H-9,12-methanocyclopenta[18,19] [1,10,3,6]dioxa diazacyclononadecino[11,12-b] quinoline-10-carboxamide], the Ki in test [1] amounted to 2.4 nM; in test [2] (setting [3]), 0.2 nM.

`C=C[C@@H]1C[C@]1(NC(=O)[C@@H]1C[C@@H]2CN1C(=O)[C@H](C(C)(C)C)NC(=O)O[C@@H]1C[C@H]1CCCCCc1c(nc3ccccc3c1OC1CNC1)O2)C(=O)NS(=O)(=O)C1(C)CC1` [Example 222, (1aR,5S,8S,10R,22aR)-17-(azetidin-3-yloxy)-5-tert-butyl-N-[(1R,2S)-2-ethenyl-1-{[(1-methylcyclopropyl)sulfonyl]carbamoyl}cyclopropyl]-3,6-dioxo-1,1a,3,4,5,6,9,10,18,19,20,21,22,22a-tetradecahydro-8H-7,10-methanocyclopropa[18,19][1,10,3,6]dioxadiazacyclononadecino[11,12-b]quinoline-8-carboxamide]: the Ki in test [1] was determined as 0.44 nM; in test [2] (setting [3]) it was 0.045 nM.

Regarding `C=C[C@@H]1C[C@]1(NC(=O)[C@@H]1C[C@@H]2CN1C(=O)[C@H](C(C)(C)C)NC(=O)O[C@@H]1C[C@H]1CCCCCc1c(nc3ccccc3c1OCCCN1CCC(C)(O)C1)O2)C(=O)NS(=O)(=O)C1(C)CC1` (stereo partly drawn) [Example 209, (1aR,5S,8S,10R,22aR)-5-tert-butyl-N-[(1R,2S)-2-ethenyl-1-{[(1-methylcyclopropyl)sulfonyl]carbamoyl}cyclopropyl]-17-[3-(3-hydroxy-3-methylpyrrolidin-1-yl)propoxy]-3,6-dioxo-1,1a,3,4,5,6,9,10,18,19,20,21,22,22a-tetradeca hydro-8H-7,10-methanocyclopropa[18,19][1,10,3,6] dioxadiazacyclononadecino[11,12-b] quinoline-8-carboxamide], the Ki in test [1] was found to be 0.55 nM; in test [2] (setting [3]), 0.056 nM.

`C=C[C@@H]1C[C@]1(NC(=O)[C@@H]1C[C@@H]2CN1C(=O)[C@H](C1CCCC1)NC(=O)O[C@]1(C)CCC[C@H]1CCCCCc1c(nc3ccccc3c1O)O2)C(=O)NS(=O)(=O)C1CC1` (single isomer, unassigned) [Example 29] registered a Ki in test [2] (setting [3]) of 0.12 nM.

For the compound `C=C[C@@H]1C[C@]1(NC(=O)[C@@H]1C[C@@H]2CN1C(=O)[C@H](C1CCCC1)NC(=O)O[C@]1(C)C[C@H]1CC/C=C/Cc1c(nc3ccccc3c1O)O2)C(=O)NS(=O)(=O)C1CC1` [Example 19, (1aR,5S,8S,10R,19E,22aR)-5-cyclopentyl-N-{(1R,2S)-1-[(cyclopropylsulfonyl)carbamoyl]-2-ethenylcyclopronyl}-17-hydroxy-1a-methyl-3,6-dioxo-1,1a,3,4,5,6,9,10,18,21,22,22a-dodecahydro-8H-7,10-methanocyclopropa[18,19][1,10,3,6]dioxadiazacyclononadecino[11,12-b]quinoline-8-carboxamide], the affinity in test [2] (setting [3]), expressed as Ki, was 0.091 nM.

These data come from patent US9328138B2 (priority 2011, dated 2016).
